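Exposure lasted 48 hours, with cells grown in 96-well plates and compounds tested at five concentrations. GI50 = concentration required for 50% inhibition of growth. Definition used: TGI = concentration required for complete inhibition of growth.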
Assays:
Assay in all cases: DTP human tumour cell line panel, 48 h
[1] = tested on: UACC-257 melanoma
[2] = tested on: TK-10 renal
[3] = tested on: U251 CNS
[4] = tested on: HCT-15 colon
[5] = tested on: EKVX NSCLC
[6] = tested on: HT29 colon
[7] = tested on: A549 NSCLC
[8] = tested on: PC-3 prostate
[9] = tested on: CAKI-1 renal
[10] = tested on: OVCAR-3 ovarian
[11] = tested on: BT-549 breast
[12] = tested on: HCT-116 colon
[13] = tested on: MALME-3M melanoma
[14] = tested on: KM12 colon
[15] = tested on: A498 renal
[16] = tested on: UO-31 renal
[17] = tested on: NCI-H23 lung
[18] = tested on: MDA-MB-231 breast
[19] = tested on: RPMI-8226 leukemia
[20] = tested on: SK-MEL-5 melanoma
[21] = tested on: COLO 205 colon
[22] = tested on: T-47D breast
[23] = tested on: NCI-H522 lung
[24] = tested on: HL-60(TB) leukemia
[25] = tested on: HS 578T breast
[26] = tested on: NCI-H460 lung
[27] = tested on: SK-OV-3 ovarian
[28] = tested on: HOP-62 NSCLC
[29] = tested on: RXF 393 renal
[30] = tested on: HOP-92 NSCLC
[31] = tested on: K-562 leukemia
[32] = tested on: OVCAR-8 ovarian
[33] = tested on: SK-MEL-28 melanoma
[34] = tested on: UACC-62 melanoma
[35] = tested on: MDA-MB-435
[36] = tested on: CCRF-CEM leukemia
[37] = tested on: DU-145 prostate
[38] = tested on: SF-268 CNS
[39] = tested on: MOLT-4 leukemia
[40] = tested on: OVCAR-5 ovarian
[41] = tested on: SN12C renal
[42] = tested on: HCC-2998 colon
[43] = tested on: 786-0 renal
[44] = tested on: MDA-MB-468 breast
[45] = tested on: SF-295 CNS
[46] = tested on: IGROV1 ovarian
[47] = tested on: SF-539 CNS
[48] = tested on: OVCAR-4 ovarian
[49] = tested on: ACHN renal
[50] = tested on: LOX IMVI melanoma
[51] = tested on: M14 melanoma
[52] = tested on: SNB-19 CNS
[53] = tested on: NCI/ADR-RES ovarian
[54] = tested on: MCF7 breast
[55] = tested on: SNB-75 CNS
[56] = tested on: SK-MEL-2 melanoma
[57] = tested on: NCI-H226 lung
[58] = tested on: SW-620 colon
[59] = tested on: SR leukemia

O=c1ccc(Cn2c(C(F)(F)F)cc3c(Cl)ncnc32)c[nH]1
GI50 [1]: 3.18 µM
TGI [1]: 12.9 µM
GI50 [2]: > 100 µM
TGI [2]: > 100 µM
GI50 [3]: 22.5 µM
TGI [3]: 69.2 µM
GI50 [4]: 2.93 µM
TGI [4]: 14.9 µM
GI50 [5]: 14.2 µM
TGI [5]: 36 µM
GI50 [6]: 29 µM
TGI [6]: > 100 µM
GI50 [7]: 64.8 µM
TGI [7]: > 100 µM
GI50 [8]: 17.1 µM
TGI [8]: 55.8 µM
GI50 [9]: 23.5 µM
TGI [9]: 99.4 µM
GI50 [10]: 14.9 µM
TGI [10]: 32.8 µM
GI50 [11]: 14 µM
TGI [11]: 28.8 µM
GI50 [12]: 3.51 µM
TGI [12]: 29.2 µM
GI50 [13]: 15.9 µM
TGI [13]: 35 µM
GI50 [14]: 17.9 µM
TGI [14]: 40.3 µM
GI50 [15]: > 100 µM
TGI [15]: > 100 µM
GI50 [16]: 5.05 µM
TGI [16]: 19.2 µM
GI50 [17]: 3.97 µM
TGI [17]: 18.4 µM
GI50 [18]: 4.65 µM
TGI [18]: 18.2 µM
GI50 [19]: 23 µM
TGI [19]: > 100 µM
GI50 [20]: 4.06 µM
TGI [20]: 15 µM
GI50 [21]: 86.6 µM
TGI [21]: > 100 µM
GI50 [22]: 30.3 µM
TGI [22]: > 100 µM
GI50 [23]: 2.05 µM
TGI [23]: 4.85 µM
GI50 [24]: 2.1 µM
TGI [24]: 5.97 µM
GI50 [25]: 8.76 µM
TGI [25]: 50.4 µM
GI50 [26]: 12 µM
TGI [26]: 36.2 µM
GI50 [27]: 44.3 µM
TGI [27]: > 100 µM
GI50 [28]: 46.7 µM
TGI [28]: > 100 µM
GI50 [29]: 11.2 µM
TGI [29]: 32.1 µM
GI50 [30]: 23 µM
TGI [30]: > 100 µM
GI50 [31]: 2.83 µM
TGI [31]: > 100 µM
GI50 [32]: 3.51 µM
TGI [32]: 17.3 µM
GI50 [33]: 3.9 µM
TGI [33]: 18.7 µM
GI50 [34]: 5.55 µM
TGI [34]: 19.7 µM
GI50 [35]: 4.69 µM
TGI [35]: 20.5 µM
GI50 [36]: 4.32 µM
TGI [36]: > 100 µM
GI50 [37]: 38.7 µM
TGI [37]: > 100 µM
GI50 [38]: 10.6 µM
TGI [38]: 28.9 µM
GI50 [39]: 3.21 µM
TGI [39]: 17.2 µM
GI50 [40]: 61.7 µM
TGI [40]: > 100 µM
GI50 [41]: 6.42 µM
TGI [41]: 23.4 µM
GI50 [42]: 2.9 µM
TGI [42]: 10.1 µM
GI50 [43]: 43.5 µM
TGI [43]: > 100 µM
GI50 [44]: 2.1 µM
TGI [44]: 5.73 µM
GI50 [45]: 28.2 µM
TGI [45]: > 100 µM
GI50 [46]: 2.29 µM
TGI [46]: 6.09 µM
GI50 [47]: 17.3 µM
TGI [47]: 40.9 µM
GI50 [48]: 17.9 µM
TGI [48]: 44.6 µM
GI50 [49]: 22.2 µM
TGI [49]: > 100 µM
GI50 [50]: 1.65 µM
TGI [50]: 3.11 µM
GI50 [51]: 4.08 µM
TGI [51]: 22.1 µM
GI50 [52]: 20.7 µM
TGI [52]: 59.4 µM
GI50 [53]: 14.2 µM
TGI [53]: 40.3 µM
GI50 [54]: 21.1 µM
TGI [54]: 67.9 µM
GI50 [55]: 10.7 µM
TGI [55]: 23.2 µM
GI50 [56]: 16.9 µM
TGI [56]: 32.6 µM
GI50 [57]: 31.7 µM
TGI [57]: > 100 µM
GI50 [58]: 5.55 µM
TGI [58]: 26.3 µM
GI50 [59]: 2.73 µM
TGI [59]: 11.8 µM

Source: PubChem BioAssay (NCI)
